Data taken from US8586739B2, “Heterocyclic compounds and their uses” (Amgen Inc., priority 2007, dated 2013).

Legend:
PI3Kδ = biological target: T1, PI3Kδ (Homo sapiens, UniProt O00329); test: In vitro enzyme assay of recombinant PI3K (residual ATP bioluminescence); format: biochemical
T1 construct: Full length p110 subunits of PI3k α, β and δ, N-terminally labeled with polyHis tag; polyHis (N); made in house; host or cells: Sf9 insect cells (baculovirus)
Method: Recombinant Expression of PI3Ks
Full length p110 subunits of PI3k α, β and δ, N-terminally labeled with polyHis tag, were coexpressed with p85 with Baculo virus expression vectors in sf9 insect cells. P110/p85 heterodimers were purified by sequential Ni-NTA, Q-HP, Superdex-100 chromatography. Purified α, β and δ isozymes were stored at −20° C. in 20 mM Tris, pH 8, 0.2M NaCl, 50% glycerol, 5 mM DTT, 2 mM Na cholate. Truncated PI3Kγ, residues 114-1102, N-terminally labeled with polyHis tag, was expessed with Baculo virus in Hi5 insect cells. The γ isozyme was purified by sequential Ni-NTA, Superdex-200, Q-HP chromatography. The γ isozyme was stored frozen at −80° C. in NaH2PO4, pH 8, 0.2M NaCl, 1% ethylene glycol, 2 mM β-mercaptoethanol.
Assays were performed in 25 μL with the above final concentrations of components in white polyproplyene plates (Costar 3355). Phospatidyl inositol phosphoacceptor, PtdIns(4,5)P2 P4508, was from Echelon Biosciences. The ATPase activity of the alpha and gamma isozymes was not greatly stimulated by PtdIns(4,5)P2 under these conditions and was therefore omitted from the assay of these isozymes. Test compounds were dissolved in dimethyl sulfoxide and diluted with three-fold serial dilutions. The compound in DMSO (1 μL) was added per test well, and the inhibition relative to reactions containing no compound, with and without enzyme was determined. After assay incubation at room temperature, the reaction was stopped and residual ATP determined by addition of an equal volume of a commercial ATP bioluminescence kit (Perkin Elmer EasyLite) according to the manufacturer's instructions, and detected using a AnalystGT luminometer.

human B cells = test: Human B cells proliferation stimulated by anti-IgM (3H thymidine); format: cell-based; conditions: Homo sapiens, B-cell, 72 h, purified human B cells, anti-Human IgM + CD40L-LZ
Method in brief: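 Human B cells were magnetically purified from PBMCs and plated at 50000/well in DMEM+5% FCS. Medium containing 250 ng/mL CD40L-LZ and 2 μg/mL anti-IgM was combined with PI3K inhibitor medium, and cells were incubated 72 h at 37° C. Proliferation was read by 0.5-1 uCi/well ^3H thymidine pulse (~18 h).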

T1 sequence (O00329 whole entry): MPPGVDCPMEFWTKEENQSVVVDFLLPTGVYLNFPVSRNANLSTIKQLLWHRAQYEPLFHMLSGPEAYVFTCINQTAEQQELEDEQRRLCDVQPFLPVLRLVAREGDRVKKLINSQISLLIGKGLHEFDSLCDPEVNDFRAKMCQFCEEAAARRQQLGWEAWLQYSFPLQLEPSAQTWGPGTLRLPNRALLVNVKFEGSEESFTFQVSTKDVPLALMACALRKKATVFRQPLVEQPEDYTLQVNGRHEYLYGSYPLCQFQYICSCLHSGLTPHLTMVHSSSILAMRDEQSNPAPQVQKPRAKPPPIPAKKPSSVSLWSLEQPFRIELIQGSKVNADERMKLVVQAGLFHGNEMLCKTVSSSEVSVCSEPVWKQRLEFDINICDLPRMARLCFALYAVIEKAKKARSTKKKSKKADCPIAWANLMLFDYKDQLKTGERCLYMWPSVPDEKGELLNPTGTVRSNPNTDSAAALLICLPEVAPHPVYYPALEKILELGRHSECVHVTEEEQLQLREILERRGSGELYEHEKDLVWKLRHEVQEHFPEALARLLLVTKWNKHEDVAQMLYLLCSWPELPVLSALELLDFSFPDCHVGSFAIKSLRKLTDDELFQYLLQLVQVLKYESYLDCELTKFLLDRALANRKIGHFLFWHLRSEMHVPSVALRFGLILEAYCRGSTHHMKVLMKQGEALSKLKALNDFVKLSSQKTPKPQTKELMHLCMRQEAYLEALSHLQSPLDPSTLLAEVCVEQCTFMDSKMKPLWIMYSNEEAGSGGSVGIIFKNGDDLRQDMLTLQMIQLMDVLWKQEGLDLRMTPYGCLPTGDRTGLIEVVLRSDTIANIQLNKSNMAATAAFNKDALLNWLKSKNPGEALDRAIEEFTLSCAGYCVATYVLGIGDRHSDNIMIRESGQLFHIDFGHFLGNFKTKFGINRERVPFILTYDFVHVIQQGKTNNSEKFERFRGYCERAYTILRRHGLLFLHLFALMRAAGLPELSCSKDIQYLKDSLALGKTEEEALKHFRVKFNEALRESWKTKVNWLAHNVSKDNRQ
T1 sequence (P27986 whole entry partner): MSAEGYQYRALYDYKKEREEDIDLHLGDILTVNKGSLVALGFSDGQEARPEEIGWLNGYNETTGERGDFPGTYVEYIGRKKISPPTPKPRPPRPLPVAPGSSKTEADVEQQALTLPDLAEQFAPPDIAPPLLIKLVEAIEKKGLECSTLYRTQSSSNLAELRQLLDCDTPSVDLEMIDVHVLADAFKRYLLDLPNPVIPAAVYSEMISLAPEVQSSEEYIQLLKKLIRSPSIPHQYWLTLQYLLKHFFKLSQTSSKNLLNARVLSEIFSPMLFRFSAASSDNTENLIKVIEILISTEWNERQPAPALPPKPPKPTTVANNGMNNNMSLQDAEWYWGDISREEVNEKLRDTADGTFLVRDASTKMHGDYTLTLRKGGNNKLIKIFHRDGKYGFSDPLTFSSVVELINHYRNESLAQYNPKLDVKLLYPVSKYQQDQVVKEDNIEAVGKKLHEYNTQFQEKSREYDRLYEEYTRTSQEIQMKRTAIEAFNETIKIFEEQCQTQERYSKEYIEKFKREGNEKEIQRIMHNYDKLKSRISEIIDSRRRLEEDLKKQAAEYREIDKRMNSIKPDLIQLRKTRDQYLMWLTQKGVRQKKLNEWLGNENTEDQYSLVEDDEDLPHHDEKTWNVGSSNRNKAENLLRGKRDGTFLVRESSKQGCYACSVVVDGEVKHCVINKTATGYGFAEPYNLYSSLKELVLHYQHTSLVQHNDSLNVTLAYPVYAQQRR

Row | SMILES | IC50 (PI3Kδ) | IC50 (human B cells)
1 | Cc1ccccc1-c1nc2c(C)cccc2cc1CNc1ncnc2[nH]cnc12 [Example 1, N-((8-Methyl-2-o-tolylquinolin-3-yl)methyl)-9H-purin-6-amine] | 84 nM | 
2 | Clc1ccccc1-c1nc2c(Cl)cccc2cc1CNc1ncnc2[nH]cnc12 [Example 2, N-((8-Chloro-2-(2-chlorophenyl)quinolin-3-yl)-methyl)-9H-purin-6-amine] | 68 nM | 
3 | Clc1nc(NCc2cc3cccc(Cl)c3nc2-c2ccccc2Cl)c2nc[nH]c2n1 [Example 3, 2-Chloro-N-((8-chloro-2-(2-chlorophenyl)quinolin-3-yl)methyl)-9H-purin-6-amine] | 615 nM | 
4 | COc1nc(NCc2cc3cccc(Cl)c3nc2-c2ccccc2Cl)c2cc[nH]c2n1 [Example 4, N-((8-Chloro-2-(2-chlorophenyl)quinolin-3-yl)methyl)-2-meth-oxy-7H-pyrrolo[2,3-d]pyrimidin-4-amine] | 5420 nM | 
5 | Cc1ccccc1-c1nc2c(C)cccc2cc1CSc1ncnc2[nH]cnc12 [Example 12, 3-((9H-Purin-6-ylthio)methyl)-8-methyl-2-o-tolylquinoline] | 889 nM | 
6 | Cc1ccccc1-c1nc2c(C)cccc2cc1CNc1nc(N)nc2[nH]cnc12 [Example 13, N6-((8-Methyl-2-o-tolylquinolin-3-yl)methyl)-9H-purine-2,6-diamine] | 82 nM | 
7 | Cc1cccc2cc(COc3ncnc4[nH]ccc34)c(-c3ccccc3)nc12 [Example 15, 3-((7H-Pyrrolo[2,3-d]pyrimidin-4-yloxy)methyl)-8-methyl-2-phenylquinoline] | 68 nM | 
8 | Cc1cccc2cc(CNc3ncnc4[nH]cnc34)c(-c3ccccc3C(F)(F)F)nc12 [Example 16, N-((8-Methyl-2-(2-(trifluoromethyl)phenyl)quinolin-3-yl)methyl)-9H-purin-6-amine] | 91 nM | 
9 | COc1cccc(F)c1-c1nc2c(C)cccc2cc1CNc1ncnc2[nH]cnc12 [Example 17, N-((2-(2-Fluoro-6-methoxyphenyl)-8-methylquinolin-3-yl)methyl)-9H-purin-6-amine] | 651 nM | 
10 | Cc1cccc2nc(-c3ccccc3Cl)c(CNc3ncnc4[nH]cnc34)nc12 [Example 18, N-((3-(2-Chlorophenyl)-8-methylquinoxalin-2-yl)methyl)-9H-purin-6-amine] | 325 nM | 
11 | Cc1ccccc1-c1nc2c(C)cccc2cc1COc1ncnc2c1CC(=O)N2 [Example 20, 4-((8-Methyl-2-o-tolylquinolin-3-yl)methoxy)-5H-pyrrolo[2,3-d]pyrimidin-6(7H)-one] | 349 nM | 
12 | Clc1cccc2cc(CNc3ncnc4[nH]cnc34)c(Oc3ccccc3)nc12 [Example 30, N-((8-Chloro-2-phenoxyquinolin-3-yl)methyl)-9H-purin-6-amine] | 125 nM | 
13 | Fc1cccc(-c2nc3c(Cl)cccc3cc2CNc2ncnc3[nH]cnc23)c1 [Example 31, N-((8-Chloro-2-(3-fluorophenyl)quinolin-3-yl)methyl)-9H-purin-6-amine] | 74 nM | 
14 | Clc1cccc2cc(CNc3ncnc4[nH]ccc34)c(-c3ccccc3)nc12 [Example 32, N-((8-chloro-2-phenylquinolin-3-yl)methyl)-7H-pyrrolo[2,3-d]pyrimidin-4-amine] | 270 nM | 
15 | Fc1cc(F)cc(-c2nc3c(Cl)cccc3cc2CNc2ncnc3[nH]cnc23)c1 [Example 33, N-((8-Chloro-2-(3,5-difluorophenyl)quinolin-3-yl)methyl)-9H-purin-6-amine] | 76 nM | 
16 | CS(=O)(=O)c1ccccc1-c1nc2c(Cl)cccc2cc1CNc1ncnc2[nH]cnc12 [Example 35, N-((8-chloro-2-(2-(methylsulfonyl)phenyl)quinolin-3-yl)methyl)-9H-purin-6-amine] | 222 nM | 
17 | Fc1ccc2cc(CNc3ncnc4[nH]cnc34)c(-c3ccccc3Cl)nc2c1 [Example 36, N-((2-(2-Chlorophenyl)-7-fluoroquinolin-3-yl)methyl)-9H-purin-6-amine] | 225 nM | 
18 | Fc1ccc2nc(-c3ccccc3Cl)c(CNc3ncnc4[nH]cnc34)cc2c1 [Example 37, N-((2-(2-Chlorophenyl)-6-fluoroquinolin-3-yl)methyl)-9H-purin-6-amine] | 1680 nM | 
19 | Fc1cc2cc(CNc3ncnc4[nH]cnc34)c(-c3ccccc3Cl)nc2cc1F [Example 38, N-((2-(2-Chlorophenyl)-6,7-difluoroquinolin-3-yl)methyl)-9H-purin-6-amine] | 551 nM | 
20 | C[C@H](Nc1ncnc2[nH]cnc12)c1cc2cccc(Cl)c2nc1-c1cncs1 [N-((S)-1-(8-Chloro-2-(thiazol-5-yl)quinolin-3-yl)ethyl)-9H-purin-6-amine] |  | 21.9 nM
21 | C[C@H](Nc1ncnc2nc[nH]c12)c1cc2cccc(F)c2nc1-c1cccc(F)c1 [N-((S)-1-(8-fluoro-2-(3-fluorophenyl)quinolin-3-yl)ethyl)-7H-purin-6-amine] |  | 5.15 nM

Continued, in another order:

Row | IC50 (PI3Kδ) | SMILES | IC50 (human B cells)
22 | 12 nM | Cc1ccccc1-c1nc2c(C)cccc2cc1C(C)Oc1ncnc2[nH]cnc12 (centres unmarked) [Example 5, 3-(1-(9H-Purin-6-yloxy)ethyl)-8-methyl-2-o-tolylquinoline] | 
23 | 31 nM | Cc1cccc2cc(C(C)Nc3ncnc4[nH]cnc34)c(-c3ccccc3Cl)nc12 (centres unmarked) [Example 6, N-(1-(2-(2-Chlorophenyl)-8-methylquinolin-3-yl)ethyl)-9H-purin-6-amine] | 
24 | 38 nM | COc1ccccc1-c1nc2c(C)cccc2cc1COc1ncnc2[nH]cnc12 [Example 7, 3-((9H-Purin-6-yloxy)methyl)-2-(2-methoxyphenyl)-8-methylquinoline] | 
25 | 22 nM | Cc1cccc2cc(COc3ncnc4[nH]cnc34)c(-c3ccccc3-c3ccccc3)nc12 [Example 8, 3-((9H-Purin-6-yloxy)methyl)-2-(biphenyl)-8-methylquinoline] | 
26 | 28 nM | C=CCC(Oc1ncnc2[nH]ccc12)c1cc2cccc(C)c2nc1-c1ccccc1Cl (centres unmarked) [Example 9, 3-(1-(7H-Pyrrolo[2,3-d]pyrimidin-4-yloxy)but-3-enyl)-2-(2-chlorophenyl)-8-methylquinoline] | 
27 | 25 nM | Cc1cccc2cc(COc3ncnc4[nH]cnc34)c(-c3ccccc3Cl)nc12 [Example 10, 3-((9H-Purin-6-yloxy)methyl)-2-(2-chlorophenyl)-8-methylquinoline] | 
28 | 56 nM | Cc1ccccc1-c1nc2c(C)cccc2cc1COc1ncnc2[nH]ccc12 [Example 14] | 
29 | 66 nM | Cc1cccc2nc(CNc3ncnc4[nH]cnc34)c(-c3ccccc3Cl)nc12 [Example 19, N-((3-(2-Chlorophenyl)-5-methylquinoxalin-2-yl)methyl)-9H-purin-6-amine] | 
30 | 31 nM | Fc1ccc(OCc2ccccc2)c(-c2nc3c(Cl)cccc3cc2CNc2ncnc3[nH]cnc23)c1 [Example 39, N-((2-(2-(Benzyloxy)-5-fluorophenyl)-8-chloroquinolin-3-yl)methyl)-9H-purin-6-amine] | 
31 | 13 nM | CC[C@H](Nc1ncnc2[nH]cnc12)c1cc2cccc(Cl)c2nc1-c1cccc(F)c1 [Example 42, N-((S)-1-(8-Chloro-2-(3-fluorophenyl)quinolin-3-yl)propyl)-9H-purin-6-amine] | 
32 | 5 nM | C[C@H](Nc1ncnc2[nH]cnc12)c1nc2cccc(Cl)c2cc1-c1cccc(F)c1 [Example 43, N-((S)-1-(5-Chloro-3-(3-fluorophenyl)quinolin-2-yl)ethyl)-9H-purin-6-amine] | 
